Columns and labels:
[1] = target: GDP-bound NRAS wild-type protein (Homo sapiens, UniProt P01111); test: Binding to NRAS by surface plasmon resonance (SPR), Single Cycle Kinetics; conditions: KD ratio, GDP-bound NRAS wild-type vs GDP-bound KRAS wild-type, SPR
[2] = target: GDP-bound HRAS wild-type protein (Homo sapiens, UniProt P01112); test: Binding to HRAS by surface plasmon resonance (SPR), Single Cycle Kinetics; conditions: KD ratio, GDP-bound HRAS wild-type vs GDP-bound KRAS wild-type, SPR
Chain of GDP-bound HRAS wild-type protein (P01112 whole entry): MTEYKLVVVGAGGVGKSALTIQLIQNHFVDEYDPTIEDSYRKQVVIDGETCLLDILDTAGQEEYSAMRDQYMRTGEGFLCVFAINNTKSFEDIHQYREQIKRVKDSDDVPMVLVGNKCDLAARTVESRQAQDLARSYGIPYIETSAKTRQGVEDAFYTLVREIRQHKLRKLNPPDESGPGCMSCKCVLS

Chain of GDP-bound NRAS wild-type protein (P01111 whole entry): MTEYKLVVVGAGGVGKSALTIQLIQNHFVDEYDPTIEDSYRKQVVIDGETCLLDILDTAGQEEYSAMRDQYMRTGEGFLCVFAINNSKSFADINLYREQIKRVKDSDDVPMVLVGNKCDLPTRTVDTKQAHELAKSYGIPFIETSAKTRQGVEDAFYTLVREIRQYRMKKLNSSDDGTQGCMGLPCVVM

| Compound | NRAS/KRAS (ratio of KD value for NRAS to KD value for KRAS) [1] | HRAS/KRAS (ratio of KD value for HRAS to KD value for KRAS) [2] |
| --- | --- | --- |
| CCC[C@H]1C(=O)N[C@@H]([C@@H](C)CC)C(=O)N(C)CC(=O)N(C)[C@H]2C/C=C\CCN(C2=O)[C@@H](Cc2ccc(C)cc2)C(=O)N(C)CC(=O)N[C@@H](CCc2ccc(C(F)(F)F)c(OC)c2)C(=O)N2C[C@H](OCC)C[C@H]2C(=O)NC2(CC(C)(C)C2)C(=O)N(C)[C@@H](C2CCCC2)C(=O)N(C)[C@H](C(=O)N(C)C)CC(=O)N1C [PP1892] | A (a compound having 10 or more and less than 20 is denoted as A) | B (a compound having 3 or more and less than 10 is denoted as B) |
| CCC[C@H]1C(=O)N[C@@H]([C@@H](C)CC)C(=O)N(C)CC(=O)N(C)[C@H]2C/C=C\CCN(C2=O)[C@@H](Cc2ccc(C)cc2)C(=O)N(C)CC(=O)N[C@@H](CCc2ccc(C(F)(F)F)c(Cl)c2)C(=O)N2C[C@@H](C)C[C@H]2C(=O)NC2(CC(C)(C)C2)C(=O)N(C)[C@@H](C2CCCC2)C(=O)N(C)[C@H](C(=O)N(C)CC)CC(=O)N1C [PP1893] | A (a compound having 10 or more and less than 20 is denoted as A) | B (a compound having 3 or more and less than 10 is denoted as B) |
| CCC[C@H]1C(=O)N[C@@H]([C@@H](C)CC)C(=O)N(C)CC(=O)N(C)[C@H]2C/C=C\CCN(C2=O)[C@@H](Cc2ccc(C)cc2)C(=O)N(C)CC(=O)N[C@@H](CCc2ccc(C(F)(F)F)c(Cl)c2)C(=O)N2C[C@H](C)C[C@H]2C(=O)NC2(CC(C)(C)C2)C(=O)N(C)[C@@H](C2CCCC2)C(=O)N(C)[C@H](C(=O)N(C)CC)CC(=O)N1C [PP1894] | A (a compound having 10 or more and less than 20 is denoted as A) | A (a compound having 10 or more and less than 20 is denoted as A) |
| CCC[C@H]1C(=O)N[C@@H]([C@@H](C)CC)C(=O)N(C)CC(=O)N(C)[C@H]2C/C=C\CCN(C2=O)[C@@H](Cc2ccc(C)cc2)C(=O)N(C)CC(=O)N[C@@H](CCc2ccc(C(F)(F)F)c(Cl)c2)C(=O)N2C[C@H](OCC)C[C@H]2C(=O)NC2(CCC2)C(=O)N(C)[C@@H](C2CCCC2)C(=O)N(C)[C@H](C(=O)N(C)CC)CC(=O)N1C [PP1895] | A (a compound having 10 or more and less than 20 is denoted as A) | B (a compound having 3 or more and less than 10 is denoted as B) |
| CCC[C@H]1C(=O)N[C@@H]([C@@H](C)CC)C(=O)N(C)CC(=O)N(C)[C@H]2C/C=C\CCN(C2=O)[C@@H](Cc2ccc(C)cc2)C(=O)N(C)CC(=O)N[C@@H](CCc2ccc(C(F)(F)F)c(Cl)c2)C(=O)N2C[C@H](OCC)C[C@H]2C(=O)NC2(CC(C)(C)C2)C(=O)N(C)[C@@H](C2CCCC2)C(=O)N(C)[C@H](C(=O)N(C)C)CC(=O)N1C [PP1896] | A (a compound having 10 or more and less than 20 is denoted as A) | B (a compound having 3 or more and less than 10 is denoted as B) |
| CC[C@H](C)[C@@H]1NC(=O)[C@H](CC2CC2)N(C)C(=O)C[C@@H](C(=O)N(C)C)N(C)C(=O)[C@H](C2CCCC2)N(C)C(=O)C2(CC(C)(C)C2)NC(=O)[C@@H]2C[C@H](C)CN2C(=O)[C@H](CCc2ccc(C(F)(F)F)c(OC)c2)NC(=O)CN(C)C(=O)[C@H](Cc2ccc(C)cc2)N2CC/C=C\C[C@@H](C2=O)N(C)C(=O)CN(C)C1=O [PP1898] | B (a compound having 3 or more and less than 10 is denoted as B) | B (a compound having 3 or more and less than 10 is denoted as B) |
| CC[C@H](C)[C@@H]1NC(=O)[C@H](CC2CC2)N(C)C(=O)C[C@@H](C(=O)N(C)CC)N(C)C(=O)[C@H](C2CCCC2)N(C)C(=O)C2(CC(C)(C)C2)NC(=O)[C@@H]2C[C@H](C)CN2C(=O)[C@H](CCc2ccc(C(F)(F)F)c(OC)c2)NC(=O)CN(C)C(=O)[C@H](Cc2ccc(C)cc2)N2CC/C=C\C[C@@H](C2=O)N(C)C(=O)CN(C)C1=O [PP1899] | A (a compound having 10 or more and less than 20 is denoted as A) | B (a compound having 3 or more and less than 10 is denoted as B) |
| CC[C@H](C)[C@@H]1NC(=O)[C@H](CC2CC2)N(C)C(=O)C[C@@H](C(=O)N(C)C)N(C)C(=O)[C@H](C2CCCC2)N(C)C(=O)C2(CC(C)(C)C2)NC(=O)[C@@H]2C[C@@H](C)CN2C(=O)[C@H](CCc2ccc(C(F)(F)F)c(OC)c2)NC(=O)CN(C)C(=O)[C@H](Cc2ccc(C)cc2)N2CC/C=C\C[C@@H](C2=O)N(C)C(=O)CN(C)C1=O [PP1901] | A (a compound having 10 or more and less than 20 is denoted as A) | B (a compound having 3 or more and less than 10 is denoted as B) |
| CC[C@H](C)[C@@H]1NC(=O)[C@H](CC2CC2)N(C)C(=O)C[C@@H](C(=O)N(C)CC)N(C)C(=O)[C@H](C2CCCC2)N(C)C(=O)C2(CC(C)(C)C2)NC(=O)[C@@H]2C[C@@H](C)CN2C(=O)[C@H](CCc2ccc(C(F)(F)F)c(OC)c2)NC(=O)CN(C)C(=O)[C@H](Cc2ccc(C)cc2)N2CC/C=C\C[C@@H](C2=O)N(C)C(=O)CN(C)C1=O [PP1902] | A (a compound having 10 or more and less than 20 is denoted as A) | A (a compound having 10 or more and less than 20 is denoted as A) |
| CCO[C@@H]1C[C@H]2C(=O)NC3(CC(C)(C)C3)C(=O)N(C)[C@@H](C3CCCC3)C(=O)N(C)[C@H](C(=O)N(C)C)CC(=O)N(C)[C@@H](CC3CC3)C(=O)N[C@@H]([C@@H](C)CC)C(=O)N(C)CC(=O)N(C)[C@H]3C/C=C\CCN(C3=O)[C@@H](Cc3ccc(C)cc3)C(=O)N(C)CC(=O)N[C@@H](CCc3ccc(C(F)(F)F)c(OC)c3)C(=O)N2C1 [PP1903] | A (a compound having 10 or more and less than 20 is denoted as A) | B (a compound having 3 or more and less than 10 is denoted as B) |
| CC[C@H](C)[C@@H]1NC(=O)[C@H](CC(C)C)N(C)C(=O)C[C@@H](C(=O)N(C)CC)N(C)C(=O)[C@H](C2CCCC2)N(C)C(=O)C2(CCC2)NC(=O)[C@@H]2C[C@H](C)CN2C(=O)[C@H](CCc2ccc(C(F)(F)F)c(OC)c2)NC(=O)CN(C)C(=O)[C@H](Cc2ccc(C)cc2)N2CC/C=C\C[C@@H](C2=O)N(C)C(=O)CN(C)C1=O [PP1904] | A (a compound having 10 or more and less than 20 is denoted as A) | B (a compound having 3 or more and less than 10 is denoted as B) |
| CC[C@H](C)[C@@H]1NC(=O)[C@H](CC(C)C)N(C)C(=O)C[C@@H](C(=O)N(C)CC)N(C)C(=O)[C@H](C2CCCC2)N(C)C(=O)C2(CC(C)(C)C2)NC(=O)[C@@H]2C[C@H](C)CN2C(=O)[C@H](CCc2ccc(C(F)(F)F)c(OC)c2)NC(=O)CN(C)C(=O)[C@H](Cc2ccc(C)cc2)N2CC/C=C\C[C@@H](C2=O)N(C)C(=O)CN(C)C1=O [PP1906] | A (a compound having 10 or more and less than 20 is denoted as A) | A (a compound having 10 or more and less than 20 is denoted as A) |
| CC[C@H](C)[C@@H]1NC(=O)[C@H](CC(C)C)N(C)C(=O)C[C@@H](C(=O)N(C)CC)N(C)C(=O)[C@H](C2CCCC2)N(C)C(=O)C2(CCC2)NC(=O)[C@@H]2C[C@@H](C)CN2C(=O)[C@H](CCc2ccc(C(F)(F)F)c(OC)c2)NC(=O)CN(C)C(=O)[C@H](Cc2ccc(C)cc2)N2CC/C=C\C[C@@H](C2=O)N(C)C(=O)CN(C)C1=O [PP1907] | AA (a compound having 20 or more is denoted as AA) | A (a compound having 10 or more and less than 20 is denoted as A) |
| CCO[C@@H]1C[C@H]2C(=O)NC3(CCC3)C(=O)N(C)[C@@H](C3CCCC3)C(=O)N(C)[C@H](C(=O)N(C)CC)CC(=O)N(C)[C@@H](CC(C)C)C(=O)N[C@@H]([C@@H](C)CC)C(=O)N(C)CC(=O)N(C)[C@H]3C/C=C\CCN(C3=O)[C@@H](Cc3ccc(C)cc3)C(=O)N(C)CC(=O)N[C@@H](CCc3ccc(C(F)(F)F)c(OC)c3)C(=O)N2C1 [PP1910] | A (a compound having 10 or more and less than 20 is denoted as A) | B (a compound having 3 or more and less than 10 is denoted as B) |
| CC[C@H](C)[C@@H]1NC(=O)[C@H](CC(F)F)N(C)C(=O)C[C@@H](C(=O)N(C)CC)N(C)C(=O)[C@H](C2CCCC2)N(C)C(=O)C2(CC(C)(C)C2)NC(=O)[C@@H]2C[C@H](C)CN2C(=O)[C@H](CCc2ccc(C(F)(F)F)c(Cl)c2)NC(=O)CN(C)C(=O)[C@H](Cc2ccc(C)cc2)N2CC/C=C\C[C@@H](C2=O)N(C)C(=O)CN(C)C1=O [PP1911] | A (a compound having 10 or more and less than 20 is denoted as A) | A (a compound having 10 or more and less than 20 is denoted as A) |
| CCO[C@@H]1C[C@H]2C(=O)NC3(CC(C)(C)C3)C(=O)N(CC)[C@@H](C3CCCC3)C(=O)N(C)[C@H](C(=O)N(C)C)CC(=O)N(C)[C@@H](CC)C(=O)N[C@@H]([C@@H](C)CC)C(=O)N(C)CC(=O)N(C)[C@H]3C/C=C\CCN(C3=O)[C@@H](Cc3ccc(C(F)(F)F)cc3)C(=O)N(C)CC(=O)N[C@@H](CCc3cc(F)c(C(F)(F)F)c(F)c3)C(=O)N2C1 [PP1913] | A (a compound having 10 or more and less than 20 is denoted as A) | A (a compound having 10 or more and less than 20 is denoted as A) |
| CCO[C@@H]1C[C@H]2C(=O)NC3(CC(C)(C)C3)C(=O)N(C)[C@@H](C3CCCC3)C(=O)N(C)[C@H](C(=O)N(C)C)CC(=O)N3CCCCC[C@H]3C(=O)N[C@@H]([C@@H](C)CC)C(=O)N(C)CC(=O)N(C)[C@H]3C/C=C\CCN(C3=O)[C@@H](Cc3ccc(C(F)(F)F)cc3)C(=O)N(C)CC(=O)N[C@@H](CCc3cc(F)c(C(F)(F)F)c(F)c3)C(=O)N2C1 [PP1915] | A (a compound having 10 or more and less than 20 is denoted as A) | A (a compound having 10 or more and less than 20 is denoted as A) |

— patent US20250230193A1, “CYCLIC COMPOUND HAVING SELECTIVE KRAS INHIBITORY EFFECT ON HRAS AND NRAS” (CHUGAI SEIYAKU KABUSHIKI KAISHA, priority 2022, published 2025)
